Assay results published in ChEMBL document CHEMBL5505953, “Facilitating the development of molecular glues: Opportunities from serendipity and rational design” (Eur J Med Chem, 2024).
Values belong to the compound of their own block, whether it stands above or below them.

Tests used:
[1] = target: Cystic fibrosis transmembrane conductance regulator (Homo sapiens, UniProt P13569)
[2] = tested on: LN-229; assay: cells; conditions: Homo sapiens, LN-229, 144 h
[3] = target: Protein cereblon/Tyrosine-protein kinase BTK (Homo sapiens, UniProt Q06187+Q96SW2); conditions: ramos
[4] = target: Estrogen receptor (Homo sapiens, UniProt P03372)
[5] = tested on: MDA-MB-231; assay: cells; conditions: Homo sapiens, MDA-MB-231, 48 h
[6] = tested on: HCC38; assay: cells; conditions: Homo sapiens, HCC38, 48 h
[7] = target: 14-3-3 protein beta/alpha (Homo sapiens, UniProt P31946)
[8] = target: B-cell lymphoma 6 protein (Homo sapiens, UniProt P41182)
[9] = target: Cereblon/Casein kinase I alpha (Homo sapiens, UniProt P48729+Q96SW2); conditions: molm-13
[10] = target: CDK12/Cyclin K (Homo sapiens, UniProt Q9NYV4)
[11] = target: Cyclin-K (Homo sapiens, UniProt O75909); conditions: hct-116
[12] = tested on: A549; assay: cells; conditions: Homo sapiens, A549, 72 h
[13] = tested on: HCT-116; assay: cells; conditions: Homo sapiens, HCT-116, 72 h
[14] = target: Protein cereblon (Homo sapiens, UniProt Q96SW2)
[15] = target: RNA-binding protein 39 (Homo sapiens, UniProt Q14498)
[16] = target: Protein cereblon/Zinc finger protein Helios (Homo sapiens, UniProt Q96SW2+Q9UKS7); conditions: hek293t
[17] = tested on: HeLa; assay: cells; conditions: Homo sapiens, 48 h
[18] = tested on: A549; assay: cells; conditions: Homo sapiens, A549, 48 h
[19] = tested on: MCF7; assay: cells; conditions: Homo sapiens, MCF7, 48 h
[20] = tested on: PC-3; assay: cells; conditions: Homo sapiens, PC-3, 48 h
[21] = tested on: NCI-H2122; assay: cells; conditions: Homo sapiens, NCI-H2122, 48 h
[22] = tested on: NCI-H1563; assay: cells; conditions: Homo sapiens, NCI-H1563, 48 h

CDK12/Cyclin K, sequence (O75909 whole entry): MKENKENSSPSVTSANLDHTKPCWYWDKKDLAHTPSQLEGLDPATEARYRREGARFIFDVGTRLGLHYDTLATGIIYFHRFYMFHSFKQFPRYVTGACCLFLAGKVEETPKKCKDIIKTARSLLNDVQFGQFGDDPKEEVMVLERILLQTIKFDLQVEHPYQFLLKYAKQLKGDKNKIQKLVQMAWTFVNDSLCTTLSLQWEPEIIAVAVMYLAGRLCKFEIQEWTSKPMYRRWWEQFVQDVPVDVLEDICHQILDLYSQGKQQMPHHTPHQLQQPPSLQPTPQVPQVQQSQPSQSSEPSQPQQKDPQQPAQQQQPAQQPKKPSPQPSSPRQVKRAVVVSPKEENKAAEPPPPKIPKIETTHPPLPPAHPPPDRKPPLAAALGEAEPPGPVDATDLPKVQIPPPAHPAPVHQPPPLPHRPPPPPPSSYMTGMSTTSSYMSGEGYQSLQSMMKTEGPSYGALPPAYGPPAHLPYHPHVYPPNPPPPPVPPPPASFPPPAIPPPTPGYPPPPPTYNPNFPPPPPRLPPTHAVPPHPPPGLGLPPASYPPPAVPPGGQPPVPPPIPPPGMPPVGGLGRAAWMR
CDK12/Cyclin K, sequence (Q9NYV4 whole entry): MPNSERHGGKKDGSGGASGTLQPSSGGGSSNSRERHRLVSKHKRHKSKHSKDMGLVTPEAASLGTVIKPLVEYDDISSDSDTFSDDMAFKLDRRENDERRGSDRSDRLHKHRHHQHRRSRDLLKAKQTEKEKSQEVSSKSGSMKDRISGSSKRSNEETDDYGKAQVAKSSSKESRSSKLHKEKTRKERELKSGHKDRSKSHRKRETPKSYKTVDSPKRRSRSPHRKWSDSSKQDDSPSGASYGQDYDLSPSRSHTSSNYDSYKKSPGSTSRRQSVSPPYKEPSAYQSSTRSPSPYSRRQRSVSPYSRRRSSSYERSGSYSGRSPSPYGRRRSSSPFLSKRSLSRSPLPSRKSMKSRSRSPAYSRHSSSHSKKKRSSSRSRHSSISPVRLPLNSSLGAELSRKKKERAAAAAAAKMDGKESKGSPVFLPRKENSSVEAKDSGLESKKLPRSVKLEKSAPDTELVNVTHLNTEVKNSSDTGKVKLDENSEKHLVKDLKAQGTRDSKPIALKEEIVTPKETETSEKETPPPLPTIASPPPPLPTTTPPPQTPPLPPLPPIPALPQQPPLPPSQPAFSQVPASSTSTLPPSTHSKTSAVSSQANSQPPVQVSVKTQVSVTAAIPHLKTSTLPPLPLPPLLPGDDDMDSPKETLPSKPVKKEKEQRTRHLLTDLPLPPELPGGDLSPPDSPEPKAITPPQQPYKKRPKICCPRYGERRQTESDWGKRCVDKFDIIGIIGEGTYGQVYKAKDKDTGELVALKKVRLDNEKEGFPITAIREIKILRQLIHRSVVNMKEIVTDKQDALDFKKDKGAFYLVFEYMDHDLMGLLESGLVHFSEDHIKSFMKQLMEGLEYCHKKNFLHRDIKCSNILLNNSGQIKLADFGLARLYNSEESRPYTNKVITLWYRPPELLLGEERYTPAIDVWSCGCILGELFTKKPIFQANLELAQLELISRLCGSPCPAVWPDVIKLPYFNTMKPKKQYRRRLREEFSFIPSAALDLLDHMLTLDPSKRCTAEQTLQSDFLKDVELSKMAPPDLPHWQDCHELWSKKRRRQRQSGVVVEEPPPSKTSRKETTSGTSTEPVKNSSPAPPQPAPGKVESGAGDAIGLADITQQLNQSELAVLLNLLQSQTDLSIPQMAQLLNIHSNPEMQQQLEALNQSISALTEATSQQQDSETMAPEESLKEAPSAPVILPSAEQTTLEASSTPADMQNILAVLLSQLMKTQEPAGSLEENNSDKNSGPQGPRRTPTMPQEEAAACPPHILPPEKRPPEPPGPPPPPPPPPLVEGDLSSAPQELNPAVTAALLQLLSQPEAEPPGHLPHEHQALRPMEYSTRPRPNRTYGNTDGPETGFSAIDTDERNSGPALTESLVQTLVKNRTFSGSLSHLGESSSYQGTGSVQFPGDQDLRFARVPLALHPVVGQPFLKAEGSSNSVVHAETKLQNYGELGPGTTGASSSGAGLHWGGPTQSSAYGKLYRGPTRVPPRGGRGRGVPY
Protein cereblon/Zinc finger protein Helios, sequence (Q96SW2 whole entry): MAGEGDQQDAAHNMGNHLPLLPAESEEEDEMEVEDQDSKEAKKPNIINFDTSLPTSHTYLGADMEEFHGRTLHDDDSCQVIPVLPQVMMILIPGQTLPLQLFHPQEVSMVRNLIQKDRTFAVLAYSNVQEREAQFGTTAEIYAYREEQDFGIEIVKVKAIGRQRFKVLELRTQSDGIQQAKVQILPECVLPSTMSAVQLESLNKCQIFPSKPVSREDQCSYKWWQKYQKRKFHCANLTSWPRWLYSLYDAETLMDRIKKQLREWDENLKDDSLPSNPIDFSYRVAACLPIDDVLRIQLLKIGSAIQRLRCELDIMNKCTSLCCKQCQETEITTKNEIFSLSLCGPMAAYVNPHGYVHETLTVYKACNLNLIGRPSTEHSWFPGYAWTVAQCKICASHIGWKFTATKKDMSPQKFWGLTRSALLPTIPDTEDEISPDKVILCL
Protein cereblon/Zinc finger protein Helios, sequence (Q9UKS7 whole entry): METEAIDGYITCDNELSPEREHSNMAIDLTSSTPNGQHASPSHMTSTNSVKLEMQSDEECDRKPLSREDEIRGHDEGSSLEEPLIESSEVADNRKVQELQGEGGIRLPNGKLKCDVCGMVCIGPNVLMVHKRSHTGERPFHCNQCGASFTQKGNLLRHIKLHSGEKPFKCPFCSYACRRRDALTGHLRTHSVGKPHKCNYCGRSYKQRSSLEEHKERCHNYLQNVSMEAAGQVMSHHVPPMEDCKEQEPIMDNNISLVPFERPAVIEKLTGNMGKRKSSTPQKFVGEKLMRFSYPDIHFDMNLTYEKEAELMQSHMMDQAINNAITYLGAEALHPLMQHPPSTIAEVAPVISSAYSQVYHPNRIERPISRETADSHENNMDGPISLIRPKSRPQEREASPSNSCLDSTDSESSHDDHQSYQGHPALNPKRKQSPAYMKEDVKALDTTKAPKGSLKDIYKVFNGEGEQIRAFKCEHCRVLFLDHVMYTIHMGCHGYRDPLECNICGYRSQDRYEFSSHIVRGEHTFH
Protein cereblon/Tyrosine-protein kinase BTK, sequence (Q06187 whole entry): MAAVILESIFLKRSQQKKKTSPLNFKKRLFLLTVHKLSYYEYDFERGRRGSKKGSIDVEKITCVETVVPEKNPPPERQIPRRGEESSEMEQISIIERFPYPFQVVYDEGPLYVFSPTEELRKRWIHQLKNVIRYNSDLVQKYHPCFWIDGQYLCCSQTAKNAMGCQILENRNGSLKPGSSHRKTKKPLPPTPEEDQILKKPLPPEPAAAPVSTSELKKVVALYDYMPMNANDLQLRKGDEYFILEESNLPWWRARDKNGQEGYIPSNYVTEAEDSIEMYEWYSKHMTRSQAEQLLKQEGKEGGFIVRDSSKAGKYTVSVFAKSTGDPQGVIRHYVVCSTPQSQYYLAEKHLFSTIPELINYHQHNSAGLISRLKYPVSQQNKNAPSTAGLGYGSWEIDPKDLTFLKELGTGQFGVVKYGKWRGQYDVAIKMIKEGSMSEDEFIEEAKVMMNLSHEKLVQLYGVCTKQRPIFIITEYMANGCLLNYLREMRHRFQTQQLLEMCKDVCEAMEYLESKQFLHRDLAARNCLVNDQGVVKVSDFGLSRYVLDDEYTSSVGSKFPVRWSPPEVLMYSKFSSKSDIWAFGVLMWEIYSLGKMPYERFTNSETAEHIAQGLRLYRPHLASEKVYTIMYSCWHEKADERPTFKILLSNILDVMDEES
Protein cereblon/Tyrosine-protein kinase BTK, sequence (Q96SW2 whole entry): as the sequence (Q96SW2 whole entry) above
Protein cereblon, sequence (Q96SW2 whole entry): as above
RNA-binding protein 39, sequence (Q14498 whole entry): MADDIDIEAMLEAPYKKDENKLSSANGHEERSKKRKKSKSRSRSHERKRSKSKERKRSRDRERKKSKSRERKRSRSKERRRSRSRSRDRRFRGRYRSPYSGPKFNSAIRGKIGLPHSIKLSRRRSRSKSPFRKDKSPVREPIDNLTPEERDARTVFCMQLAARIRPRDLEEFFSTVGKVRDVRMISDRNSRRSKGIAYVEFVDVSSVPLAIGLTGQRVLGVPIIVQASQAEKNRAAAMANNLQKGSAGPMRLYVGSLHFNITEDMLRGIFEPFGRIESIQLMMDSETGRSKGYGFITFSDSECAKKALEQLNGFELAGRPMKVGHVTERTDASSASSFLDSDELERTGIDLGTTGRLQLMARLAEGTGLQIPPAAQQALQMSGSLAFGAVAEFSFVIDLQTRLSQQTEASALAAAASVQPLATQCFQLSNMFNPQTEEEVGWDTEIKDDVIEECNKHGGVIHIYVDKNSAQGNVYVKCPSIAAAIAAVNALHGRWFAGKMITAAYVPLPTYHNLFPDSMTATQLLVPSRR
14-3-3 protein beta/alpha, sequence (P31946 whole entry): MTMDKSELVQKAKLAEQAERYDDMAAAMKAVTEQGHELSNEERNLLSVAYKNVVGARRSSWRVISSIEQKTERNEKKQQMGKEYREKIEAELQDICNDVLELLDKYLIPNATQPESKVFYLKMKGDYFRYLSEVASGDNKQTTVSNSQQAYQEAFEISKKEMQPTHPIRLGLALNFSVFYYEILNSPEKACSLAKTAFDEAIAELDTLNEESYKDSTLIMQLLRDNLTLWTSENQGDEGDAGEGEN
Cyclin-K, sequence (O75909 whole entry): as the sequence (O75909 whole entry) above
Cereblon/Casein kinase I alpha, sequence (P48729 whole entry): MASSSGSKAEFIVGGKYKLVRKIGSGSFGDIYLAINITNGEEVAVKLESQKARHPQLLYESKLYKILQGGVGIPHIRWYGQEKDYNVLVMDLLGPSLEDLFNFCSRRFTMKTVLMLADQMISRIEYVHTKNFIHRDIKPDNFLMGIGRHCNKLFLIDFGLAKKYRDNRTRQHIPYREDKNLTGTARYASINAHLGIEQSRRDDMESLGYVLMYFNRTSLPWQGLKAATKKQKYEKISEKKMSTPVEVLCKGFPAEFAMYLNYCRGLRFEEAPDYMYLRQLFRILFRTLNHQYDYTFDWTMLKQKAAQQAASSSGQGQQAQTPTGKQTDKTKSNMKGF
Cereblon/Casein kinase I alpha, sequence (Q96SW2 whole entry): as the sequence (Q96SW2 whole entry) above

IC50 [1]: 36100 nM
Structure (SMILES): N=C(N)NCCC[C@@H]1NCc2ccccc2Sc2ccccc2CNC(=O)[C@H](Cc2ccc(O)cc2)NC(=O)[C@H](CCCN)NC1=O

IC50 [2]: 2300 nM
Structure (SMILES): O=C(Nc1ccc(Cl)c([N+](=O)[O-])c1)Nc1nc2ccccc2s1

DC50 [3]: 50 nM
Structure (SMILES): Nc1ncnc2c1c(-c1ccc(Oc3ccccc3)cc1)nn2[C@H]1CCCN(C(=O)CCCCCCCCNc2ccc3c(c2)C(=O)N(C2CCC(=O)NC2=O)C3=O)C1 (stereo partly specified)

IC50 [4]: 75000 nM
Structure (SMILES): O=C(C1=C(O)C(=O)N(c2ccccc2O)C1c1ccc([N+](=O)[O-])cc1)c1ccccc1 (stereo unspecified)

EC50 [5]: 13800 nM
EC50 [6]: 4500 nM
Structure (SMILES): O=C(/C=C/C=C/C=C/C1CCCCC1)NC1=C[C@@](O)(/C=C/C=C/C=C/C(=O)NC2=C(O)CCC2=O)[C@@H]2O[C@@H]2C1=O

IC50 [7]: 5200 nM
Structure (SMILES): O=C(COc1ccccc1P(=O)(O)O)NCCc1ccccc1

IC50 [2]: 850 nM
Structure (SMILES): N#Cc1ccc2nc(NC(=O)Nc3cccc(Cl)c3)sc2c1

IC50 [8]: < 3 nM
Structure (SMILES): CNC(=O)COc1cc2cc(Nc3nc(N4C[C@H](C)C[C@H](C)C4)ncc3Cl)ccc2n(C)c1=O

DC50 [9]: 11 nM
Structure (SMILES): O=C1CCC(N2Cc3c(CNC(=O)c4ccc(F)cc4)cccc3C2=O)C(=O)N1 (stereo unspecified)

Structure (SMILES): O=C(CSc1nc2ccccc2[nH]1)Nc1ccc(Cl)cn1
IC50 [10]: 400 nM

DC50 [11]: 132 nM
IC50 [12]: 1300 nM
IC50 [13]: 1300 nM
Structure (SMILES): Cc1cccc(Nc2nc(CC(=O)Nc3ncc(C)s3)cs2)n1

IC50 [10]: 400 nM
Structure (SMILES): O=C(CSc1nnc2c(n1)[nH]c1ccccc12)Nc1ccc(Cl)cn1

IC50 [14]: 360 nM
Structure (SMILES): NS(=O)(=O)c1ccc(S(=O)(=O)Nc2cccc3c(Cl)c[nH]c23)cc1

IC50 [10]: 400 nM
Structure (SMILES): Cc1ccc(C(=O)N2CSCC2C(=O)/N=c2/[nH]cc(C)s2)o1 (stereo unspecified)

IC50 [15]: 400 nM
Structure (SMILES): Cc1ccc(S(=O)(=O)N/N=C/c2cc(Br)ccc2O)cc1

DC50 [16]: > 50000 nM
Structure (SMILES): O=C1CCC(N2Cc3cc(C4CCNCC4)ccc3C2=O)C(=O)N1 (stereo unspecified)

EC50 [17]: 10 nM
EC50 [18]: 10 nM
EC50 [19]: 10 nM
EC50 [20]: 10 nM
EC50 [21]: 10 nM
EC50 [22]: 10 nM
Structure (SMILES): CCN(CC)c1ccc(C2=NNC(=O)CC2C)cc1[N+](=O)[O-] (stereo unspecified)

DC50 [16]: 4000 nM
Structure (SMILES): O=C1CCC(N2Cc3cc(C4CCN(Cc5ccccc5)CC4)ccc3C2=O)C(=O)N1 (stereo unspecified)
